# Experiments:
# [1] = system: MCD4 cells; assay: Surface protein biotinylation of apical membrane AQP2 in MCD4 cells (densitometric analysis, FIG. 1); format: cell-based; details: control set to 100%
# Text: (§1) In MCD4 cells in the absence of lovastatin in the culture medium (-Lovastatin) and in control (ctr) conditions, the AQP2 is stored in intracellular vesicles. […] The FK mimes the effect of the vasopressin in in vitro experiments. The same phenomenon occurs in the tubule in vivo following release into the circulation of vasopressin. […] The lovastatin therefore mimes the effect of the FK or the stimulation with vasopressin. […] It is possible to quantize the effect of the treatment with lovastatin in terms of accumulation of AQP2 on the apical membrane by means of surface protein biotinylation experiments.
# In the absence of lovastatin, only a modest amount of AQP2 is expressed on the apical membrane of the MCD4 cells, and therefore biotinylated, in control cells. The treatment with FK determines an increase of approximately 3 times in the amount of AQP2 expressed on the apical membrane.
# [2] = system: MCD4 cells; assay: AQP2 localisation on the apical membrane of MCD4 renal cells in culture; format: cell-based
# Protocol: The MCD4 cells, which are in culture and derive from main cells of the renal collecting duct, were treated experimentally with lovastatin. In the cell model, as in the renal tubule in vivo, the presence of AQP2 on the membrane depends on the presence of vasopressin.
# as §1
# In vitro tests performed in MCD4 renal cells indicate that the minimum treatment time with statins able to produce an evident shift of the AQP2 in the cells is 6 hours.
structure (smiles),measurement,setting,value
C=C[C@@]1(C)CC(=O)[C@]2(O)[C@@]3(C)[C@@H](O)CCC(C)(C)[C@@H]3[C@H](O)[C@H](OC(C)=O)[C@@]2(C)O1 [forskolin],increase in the amount of AQP2 expressed on the apical membrane (biotinylated),[1]; treatment with FK,approximately 3 times
CC(C)c1nc(N(C)S(C)(=O)=O)nc(-c2ccc(F)cc2)c1/C=C/[C@@H](O)C[C@@H](O)CC(=O)O [rosuvastatin],effect produced by the lovastatin (AQP2 accumulation on the apical membrane) induced by other statins,"[2]; MCD4 cells, hydrosoluble formulation",induced also
CC[C@H](C)C(=O)O[C@H]1C[C@@H](C)C=C2C=C[C@H](C)[C@H](CC[C@@H]3C[C@@H](O)CC(=O)O3)[C@H]21 [lovastatin],increase in the AQP2 on the apical membrane,"[2]; MCD4 cells, lovastatin in the medium plus treatment with FK",even more evident
same,AQP2 accumulation on the apical membrane,"[2]; MCD4 control (ctr) cells, 5 μM lovastatin in the culture medium for 72 h",accumulate a considerable amount of AQP2 on the apical membrane
same,increase of AQP2 present on the apical membrane (biotinylated),[1]; 72 h with lovastatin alone,comparable to the one obtained by the FK
